{"source": "patent US20230295157A1", "about": "“3-(1H-IMIDAZOL-2-YL)-2,3,8,8A-TETRAHYDROINDOLIZIN-5(1H)-ONE DERIVATIVES USEFUL AS FACTOR XIA INHIBITORS” (JANSSEN PHARMACEUTICA NV, priority 2020, published 2023)", "key": {"human plasma kallikrein": {"molecular_target": "human plasma kallikrein (Homo sapiens (Human), UniProt P03952)", "sequence (P03952 391-638)": "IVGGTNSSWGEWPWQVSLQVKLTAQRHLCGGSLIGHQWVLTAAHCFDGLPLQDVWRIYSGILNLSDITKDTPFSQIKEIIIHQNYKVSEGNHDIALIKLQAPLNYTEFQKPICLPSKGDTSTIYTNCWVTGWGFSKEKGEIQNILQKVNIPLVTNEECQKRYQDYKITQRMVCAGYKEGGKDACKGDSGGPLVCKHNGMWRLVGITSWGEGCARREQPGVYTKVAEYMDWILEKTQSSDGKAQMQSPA", "sequence (P03952 20-390 partner)": "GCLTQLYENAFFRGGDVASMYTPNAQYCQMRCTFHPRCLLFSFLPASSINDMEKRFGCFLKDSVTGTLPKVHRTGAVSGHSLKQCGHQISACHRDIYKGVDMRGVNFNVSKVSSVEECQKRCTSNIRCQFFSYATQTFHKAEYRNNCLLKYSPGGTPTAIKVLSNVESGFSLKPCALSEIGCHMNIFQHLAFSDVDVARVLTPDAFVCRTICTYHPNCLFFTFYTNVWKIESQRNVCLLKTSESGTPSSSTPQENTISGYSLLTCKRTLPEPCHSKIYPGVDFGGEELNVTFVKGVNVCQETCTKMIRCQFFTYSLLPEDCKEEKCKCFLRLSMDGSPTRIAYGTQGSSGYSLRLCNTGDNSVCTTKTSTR", "experiment": "Kallikrein inhibition assay (FLINT) utilizing a quenched AMC peptide substrate", "format": "biochemical", "conditions": "30 min preincubation, kinetic reads over 30 min, Z-Gly-Pro-Arg-AMC substrate 50 μM; read-out: Kallikrein Kin Inh IC50", "method_in_brief": "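Enzyme (2 nM final) pre-incubated 30 min at room temperature with compound (11-point, 3-fold, top 1 μM, 2% DMSO), then 50 μM Z-Gly-Pro-Arg-AMC added in Tris pH 7.5 buffer. Kinetic fluorescence 340/440 nm every 5 min over 30 min; IC50 from 4-parameter logistic fit.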"}, "Factor XIa": {"molecular_target": "Factor XIa (Homo sapiens (Human), UniProt P03951)", "sequence (P03951 388-625)": "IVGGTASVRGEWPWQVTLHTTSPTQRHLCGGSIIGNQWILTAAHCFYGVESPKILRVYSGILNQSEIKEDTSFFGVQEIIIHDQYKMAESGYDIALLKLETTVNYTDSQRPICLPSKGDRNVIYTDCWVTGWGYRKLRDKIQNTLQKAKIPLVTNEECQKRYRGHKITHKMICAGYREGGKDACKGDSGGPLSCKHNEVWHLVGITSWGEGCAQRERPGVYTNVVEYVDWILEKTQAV", "sequence (P03951 19-387 partner)": "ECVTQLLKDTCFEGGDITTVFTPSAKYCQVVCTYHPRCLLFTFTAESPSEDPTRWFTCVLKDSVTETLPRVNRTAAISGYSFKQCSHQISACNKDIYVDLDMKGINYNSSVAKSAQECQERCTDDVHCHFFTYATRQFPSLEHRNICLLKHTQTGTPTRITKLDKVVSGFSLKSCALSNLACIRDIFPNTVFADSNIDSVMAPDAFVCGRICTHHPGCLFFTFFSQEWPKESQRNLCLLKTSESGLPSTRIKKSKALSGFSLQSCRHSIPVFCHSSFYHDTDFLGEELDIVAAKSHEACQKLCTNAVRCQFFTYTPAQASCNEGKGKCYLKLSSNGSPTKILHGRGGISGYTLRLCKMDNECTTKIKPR", "experiment": "Factor XIa inhibition assay (FLINT) utilizing a fluorophore-quencher pair peptide substrate", "format": "biochemical", "conditions": "30 min preincubation, kinetic reads over 30 min, read-out: FXIa Kin Inh IC50", "method_in_brief": "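FXIa ([…]) preincubated 30 min with compound (11-point 3-fold dilution, top 100 nM, 2% DMSO), then 15 μM quenched FXI Arg146-based peptide added; Tris pH 7.5, CaCl2, BSA, CHAPS. Fluorescence 485/520 nm read kinetically every 5 min over 30 min at RT; IC50 by 4-parameter fit.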"}, "[1]": {"conditions": "5Fam-KLTRAETV-K5Tamra substrate 15 μM"}, "[2]": {"conditions": "5Fam-[…]-K5Tamra substrate 15 μM"}}, "note": "Read-outs that look alike come from different tables or passages of the source.", "data": [{"compound": "O=C(NC12CC(C1)C2)c1nccc(-c2cnc([C@@H]3CC[C@@H]4CC(c5c(-n6cnnn6)ccc(Cl)c5F)=CC(=O)N43)[nH]2)c1F", "note": "[Example 104, N-(bicyclo[1.1.1]pentan-1-yl)-4-(2-((3S,8aR)-7-(3-chloro-2-fluoro-6-(1H-tetrazol-1-yl)phenyl)-5-oxo-1,2,3,5,8,8a-hexahydroindolizin-3-yl)-1H-imidazol-5-yl)-3-fluoropicolinamide]", "values": [{"measurement": "IC50", "setting": "human plasma kallikrein", "result": 35.4, "unit": "nM"}, {"measurement": "IC50", "setting": "Factor XIa; [1]", "result": 16.6, "unit": "nM"}]}, {"compound": "CO[C@H]1C[C@@H](c2nc(-c3ccc(N)nc3F)c[nH]2)N2C(=O)C=C(c3c(-n4cnnn4)ccc(Cl)c3F)CC12", "note": "(stereo partly drawn) [Example 285, (1 S,3S)-3-(4-(6-Amino-2-fluoropyridin-3-yl)-1H-imidazol-2-yl)-7-(3-chloro-2-fluoro-6-(1H-tetrazol-1-yl)phenyl)-1-methoxy-2,3,8,8a-tetrahydroindolizin-5(1H)-one]", "values": [{"measurement": "IC50", "setting": "human plasma kallikrein", "result": 207, "unit": "nM"}, {"measurement": "IC50", "setting": "Factor XIa; [1]", "result": 9.1, "unit": "nM"}]}, {"compound": "CC(C)(O)COc1nccc(-c2c[nH]c([C@@H]3CC[C@@H]4CC(c5c(-n6cnnn6)ccc(Cl)c5F)=CC(=O)N43)n2)c1F", "note": "[Example 190]", "values": [{"measurement": "IC50", "setting": "human plasma kallikrein", "result": 9.4, "unit": "nM"}, {"measurement": "IC50", "setting": "Factor XIa; [1]", "result": 1.2, "unit": "nM"}]}, {"compound": "O=C1C=C(c2c(-n3cnnn3)ccc(Cl)c2F)CC2CC[C@@H](c3nc(F)c(-c4ccnc(N[C@H]5CCOC5)c4F)[nH]3)N12", "note": "(relative stereo) [Example 76, (3S*)-7-(3-chloro-2-fluoro-6-(1H-tetrazol-1-yl)phenyl)-3-(4-fluoro-5-(3-fluoro-2-(((S)-tetrahydrofuran-3-yl)amino)pyridin-4-yl)-1H-imidazol-2-yl)-2,3,8,8a-tetrahydroindolizin-5(1H)-one]", "values": [{"measurement": "IC50", "setting": "human plasma kallikrein", "result": 1.9, "unit": "nM"}, {"measurement": "IC50", "setting": "Factor XIa; [2]", "result": 0.7, "unit": "nM"}]}, {"compound": "CC(=O)Nc1cc(-c2cnc([C@@H]3CCC4CC(c5c(-n6cnnn6)ccc(Cl)c5F)=CC(=O)N43)[nH]2)c(Cl)cn1", "note": "(stereo partly drawn) [Example 18, N-[5-Chloro-4 [2-[(3S)-7-[3-Chloro-2-fluoro-6-(tetrazol-1-yl)phenyl]-5-oxo-2,3,8,8a-tetrahydro-1H-indolizin-3-yl]-1H-imidazol-5-yl]-2-pyridyl]acetamide]", "values": [{"measurement": "IC50", "setting": "human plasma kallikrein", "result": 465, "unit": "nM"}, {"measurement": "IC50", "setting": "Factor XIa; [1]", "result": 82.1, "unit": "nM"}]}, {"compound": "O=C1C=C(c2c(-n3cnnn3)ccc(Cl)c2F)CC2CC[C@@H](c3ncc(-c4ccc5[nH]c(=O)[nH]c5c4)[nH]3)N12", "note": "(stereo partly drawn) [Example 312, 5-(2-((3S)-7-(3-Chloro-2-fluoro-6-(1H-tetrazol-1-yl)phenyl)-5-oxo-1,2,3,5,8,8a-hexahydroindolizin-3-yl)-1H-imidazol-5-yl)-1H-benzo[d]imidazol-2(3H)-one]", "values": [{"measurement": "IC50", "setting": "human plasma kallikrein", "result": 0.6, "unit": "nM"}, {"measurement": "IC50", "setting": "Factor XIa; [1]", "result": 0.3, "unit": "nM"}]}, {"compound": "O=C1C=C(c2c(-n3cnnn3)ccc(Cl)c2F)C[C@H]2CC[C@@H](c3ncc(-c4ccnc(-c5ncc[nH]5)c4F)[nH]3)N12", "note": "[Example 2, (3S,8aR)-7-[3-Chloro-2-fluoro-6-(tetrazol-1-yl)phenyl]-3-[5-[3-fluoro-2-(1H-imidazol-2-yl)-4-pyridyl]-1H-imidazol-2-yl]-2,3,8,8a-tetrahydro-1H-indolizin-5-one]", "values": [{"measurement": "IC50", "setting": "human plasma kallikrein", "result": 9.3, "unit": "nM"}, {"measurement": "IC50", "setting": "Factor XIa; [1]", "result": 1.9, "unit": "nM"}]}, {"compound": "C[C@H](C#N)c1nccc(-c2cnc([C@@H]3CCC4CC(c5c(-n6cnnn6)ccc(Cl)c5F)=CC(=O)N43)[nH]2)c1F", "note": "(relative stereo) [Example 163, (2*S)-2-(4-(2-((3S)-7-(3-chloro-2-fluoro-6-(1H-tetrazol-1-yl)phenyl)-5-oxo-1,2,3,5,8,8a-hexahydroindolizin-3-yl)-1H-imidazol-5-yl)-3-fluoropyridin-2-yl)propanenitrile]", "values": [{"measurement": "IC50", "setting": "human plasma kallikrein", "result": 28.8, "unit": "nM"}, {"measurement": "IC50", "setting": "Factor XIa; [1]", "result": 7.4, "unit": "nM"}]}, {"compound": "O=C1C=C(c2c(-n3cnnn3)ccc(Cl)c2F)C[C@H]2CC[C@@H](c3ncc(-c4ccnc(N[C@H]5CCOC5)c4F)[nH]3)N12", "note": "(single isomer, unassigned) [Example 73, (3S,8aR*)-7-(3-chloro-2-fluoro-6-(1H-tetrazol-1-yl)phenyl)-3-(5-(3-fluoro-2-(((S)-tetrahydrofuran-3-yl)amino)pyridin-4-yl)-1H-imidazol-2-yl)-2,3,8,8a-tetrahydroindolizin-5(1H)-one]", "values": [{"measurement": "IC50", "setting": "human plasma kallikrein", "result": 2.7, "unit": "nM"}, {"measurement": "IC50", "setting": "Factor XIa; [2]", "result": 0.6, "unit": "nM"}]}, {"compound": "O=C1C=C(c2c(-n3cnnn3)ccc(Cl)c2F)C[C@H]2CC[C@@H](c3ncc(-c4ccc5cc[nH]c5c4F)[nH]3)N12", "note": "[Example 384, (3S,8aR)-7-(3-chloro-2-fluoro-6-(1H-tetrazol-1-yl)phenyl)-3-(5-(7-fluoro-1H-indol-6-yl)-1H-imidazol-2-yl)-2,3,8,8a-tetrahydroindolizin-5(1H)-one]", "values": [{"measurement": "IC50", "setting": "human plasma kallikrein", "result": 6.6, "unit": "nM"}, {"measurement": "IC50", "setting": "Factor XIa; [1]", "result": 1.7, "unit": "nM"}]}, {"compound": "COc1c(-c2cnc(C3CC[C@H]4CC(c5c(-n6cnnn6)ccc(Cl)c5F)=CC(=O)N34)[nH]2)ccnc1N", "note": "(stereo in doubt) [Example 382, (3R,8aS)-3-(5-(2-amino-3-methoxypyridin-4-yl)-1H-imidazol-2-yl)-7-(3-chloro-2-fluoro-6-(1H-tetrazol-1-yl)phenyl)-2,3,8,8a-tetrahydroindolizin-5(1H)-one]", "values": [{"measurement": "IC50", "setting": "human plasma kallikrein", "result": 27.7, "unit": "nM"}, {"measurement": "IC50", "setting": "Factor XIa; [1]", "result": 1.4, "unit": "nM"}]}, {"compound": "O=C1OCCN1c1nccc(-c2cnc([C@@H]3CC[C@@H]4CC(c5c(-n6cnnn6)ccc(Cl)c5F)=CC(=O)N43)[nH]2)c1F", "note": "[Example 114, 3-[4-[2-[(3S,8aR)-7-[3-chloro-2-fluoro-6-(tetrazol-1-yl)phenyl]-5-oxo-2,3,8,8a-tetrahydro-1H-indolizin-3-yl]-1H-imidazol-5-yl]-3-fluoro-2-pyridyl]oxazolidin-2-one]", "values": [{"measurement": "IC50", "setting": "human plasma kallikrein", "result": 55.9, "unit": "nM"}, {"measurement": "IC50", "setting": "Factor XIa; [1]", "result": 9.4, "unit": "nM"}]}, {"compound": "Nc1ccn(-c2nccc(-c3cnc([C@H]4CC[C@@H]5CC(c6c(-n7cnnn7)ccc(Cl)c6F)=CC(=O)N54)[nH]3)c2F)n1", "note": "(single isomer, unassigned) [Example 63]", "values": [{"measurement": "IC50", "setting": "human plasma kallikrein", "result": 6.2, "unit": "nM"}, {"measurement": "IC50", "setting": "Factor XIa; [2]", "result": 6.9, "unit": "nM"}]}, {"compound": "Cn1c(=O)[nH]c2cc(-c3cnc([C@@H]4CC[C@@H]5CC(c6c(-n7cnnn7)ccc(Cl)c6F)=CC(=O)N54)[nH]3)ccc21", "note": "(relative stereo) [Example 303, 5-(24(3S,8aR*)-7-(3-Chloro-2-fluoro-6-(1H-tetrazol-1-yl)phenyl)-5-oxo-1,2,3,5,8,8a-hexahydroindolizin-3-yl)-1H-imidazol-5-yl)-1-methyl-1H-benzo[d]imidazol-2(3H)-one]", "values": [{"measurement": "IC50", "setting": "human plasma kallikrein", "result": 4.4, "unit": "nM"}, {"measurement": "IC50", "setting": "Factor XIa; [2]", "result": 0.9, "unit": "nM"}]}, {"compound": "O=C1C=C(c2c(-n3cnnn3)ccc(Cl)c2F)C[C@H]2CC[C@@H](c3ncc(-c4ccnc(OCC5(O)CC5)c4F)[nH]3)N12", "note": "[Example 183, (3S,8aR)-7-(3-chloro-2-fluoro-6-(1H-tetrazol-1-yl)phenyl)-3-(5-(3-fluoro-2-((1-hydroxycyclopropyl)methoxy)pyridin-4-yl)-1H-imidazol-2-yl)-2,3,8,8a-tetrahydroindolizin-5(1H)-one]", "values": [{"measurement": "IC50", "setting": "human plasma kallikrein", "result": 3.8, "unit": "nM"}, {"measurement": "IC50", "setting": "Factor XIa; [2]", "result": 0.6, "unit": "nM"}]}, {"compound": "O=C1C=C(c2c(-n3cnnn3)ccc(Cl)c2F)C[C@H]2CC[C@@H](c3ncc(-c4ccnc(C(F)(F)CO)c4F)[nH]3)N12", "note": "(relative stereo) [Example 160, (3*S,8aR)-7-(3-chloro-2-fluoro-6-(1H-tetrazol-1-yl)phenyl)-3-(5-(2-(1,1-difluoro-2-hydroxyethyl)-3-fluoropyridin-4-yl)-1H-imidazol-2-yl)-2,3,8,8a-tetrahydroindolizin-5(1H)-one]", "values": [{"measurement": "IC50", "setting": "human plasma kallikrein", "result": 27.8, "unit": "nM"}, {"measurement": "IC50", "setting": "Factor XIa; [2]", "result": 8.4, "unit": "nM"}]}, {"compound": "NC(=O)c1ccc(-c2nc([C@@H]3CC[C@H]4CC(c5c(-n6cc(C(F)(F)F)nn6)ccc(Cl)c5F)=CC(=O)N43)[nH]c2Cl)s1", "note": "[Example 202, 5-(5-Chloro-2-((3S,8aS)-7-(3-chloro-2-fluoro-6-(4-(trifluoromethyl)-1H-1,2,3-triazol-1-yl)phenyl)-5-oxo-1,2,3,5,8,8a-hexahydroindolizin-3-yl)-1H-imidazol-4-yl)thiophene-2-carboxamide]", "values": [{"measurement": "IC50", "setting": "human plasma kallikrein", "result": 1.5, "unit": "nM"}, {"measurement": "IC50", "setting": "Factor XIa; [1]", "result": 0.6, "unit": "nM"}]}]}
